Experimental data as given in patent US5475009A, “1, 2-dialkoxyethanes as 5-lipoxygenase inhibitors” (Abbott Laboratories, priority 1994, dated 1995).

Target: T1, 5-Lipoxygenase (Homo sapiens, UniProt P09917)
T1 construct: endogenous in cells; host or cells: human heparinized whole blood (its leukocytes)
T1 sequence (P09917 1-674): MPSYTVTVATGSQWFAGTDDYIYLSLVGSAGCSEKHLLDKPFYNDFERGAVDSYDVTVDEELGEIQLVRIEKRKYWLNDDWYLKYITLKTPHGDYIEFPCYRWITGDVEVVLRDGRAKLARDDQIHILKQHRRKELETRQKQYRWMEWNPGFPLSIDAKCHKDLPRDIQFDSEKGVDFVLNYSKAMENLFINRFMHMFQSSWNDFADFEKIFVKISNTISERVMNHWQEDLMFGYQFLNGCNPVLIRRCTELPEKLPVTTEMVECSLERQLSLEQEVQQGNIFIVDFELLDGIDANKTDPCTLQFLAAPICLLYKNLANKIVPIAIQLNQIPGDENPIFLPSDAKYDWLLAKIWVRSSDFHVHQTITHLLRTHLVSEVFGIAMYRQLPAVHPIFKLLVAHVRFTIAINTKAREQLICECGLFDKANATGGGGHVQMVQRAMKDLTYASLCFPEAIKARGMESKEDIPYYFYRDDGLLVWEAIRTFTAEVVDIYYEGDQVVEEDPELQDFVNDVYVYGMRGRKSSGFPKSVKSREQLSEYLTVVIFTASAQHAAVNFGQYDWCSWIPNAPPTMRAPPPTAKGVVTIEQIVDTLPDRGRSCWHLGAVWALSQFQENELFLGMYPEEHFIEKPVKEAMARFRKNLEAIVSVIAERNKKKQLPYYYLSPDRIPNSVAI
Experiment: Inhibition of calcium ionophore A23187-induced LTB4 biosynthesis in human whole blood (radioimmunoassay)
Format: cell-based
Conditions: human heparinized whole blood, 15 min preincubation, A23187 8.3 μM, 30 min, read-out: Inhibition of stimulated LTB4 formation in human whole blood (IC50 (10^-6 M)); for inhibition at 0.2 µM: @ 0.20 μM
Description: Inhibition of leukotriene biosynthesis was evaluated in an assay, involving calcium ionophore-induced LTB4 biosynthesis expressed human whole blood. Human heparinized whole blood was preincubated with test compounds or vehicle for 15 min at 37° C. followed by calcium ionophore A23187 challenge (final concentration of 8.3 μM) and the reaction terminated after 30 min by adding two volumes of methanol containing prostaglandin B2 as an internal recovery standard. The methanol extract was analyzed for LTB4 using a commercially available radioimmunoassay.
In Vitro Inhibitory Potencies of Compounds of this Invention
Against 5-Lipoxygenase from Stimulated LTB4
Formation in Human Whole Blood

| SMILES | inhibition at 0.78 µM | inhibition at 0.2 µM | other results |
| --- | --- | --- | --- |
| CO/N=C(/c1cc(F)cc(OCc2ccc3ccccc3c2)c1)[C@H]1COC(C)(C)O1 [4(Z oxime), Z-(4S)-O-methyl-2,2-dimethyl-4-[(5-fluoro-3-(napth-2-ylmethyloxy)phenyl)oximinomethyl]-1,3-dioxolane] | 78% |  |  |
| CO/N=C(/c1cc(F)cc(OCc2ccc3c(ccc(=O)n3C)c2)c1)[C@H]1COC(C)(C)O1 [Example 6, Z-(4S)-O-methyl-2,2-dimethyl-4-[(5-fluoro-3-(1,2-dihydro-1-methyl-2-oxoquinoline-6-ylmethyloxy)phenyl)oximinomethyl]-1,3-dioxolane] |  | 83% |  |
| CO/N=C(\c1cc(F)cc(OCc2ccc3c(ccc(=O)n3C)c2)c1)[C@H]1COC(C)(C)O1 [Example 5, E-(4S)-O-methyl-2,2-dimethyl-4-[(5-fluoro-3-(1,2-dihydro-1-methyl-2-oxoquinoline-6-ylmethyloxy)phenyl)oximinomethyl]-1,3-dioxolane] |  |  | inhibition at 0.1 µM (@ 0.10 μM): 95% |
| CO/N=C(\c1cc(F)cc(OCc2ccc3ccccc3c2)c1)[C@H]1COC(C)(C)O1 [4(E oxime), E-(4S)-O-methyl-2,2-dimethyl-4-[(5-fluoro-3-(napth-2-ylmethyloxy)phenyl)oximinomethyl]-1,3-dioxolane] |  | 100% |  |

More lines, main results first:

| inhibition at 0.78 µM | inhibition at 0.2 µM | SMILES | other results |
| --- | --- | --- | --- |
| 92% |  | COC[C@@H](OC)[C@H](OC)c1cc(F)cc(OCc2ccc3ccccc3c2)c1 [Example 8, syn-(1R, 2R)-1-[(5-fluoro-3-(napth-2-ylmethyloxy)phenyl)]-1,2,3-trimethoxypropane] |  |
|  | 95% | COC[C@@H](OC)[C@@H](OC)c1cc(F)cc(OCc2ccc3ccccc3c2)c1 [Example 7, anti-(1S, 2R)-1-[(5-fluoro-3-(napth-2-ylmethyloxy)phenyl)]-1,2,3-trimethoxypropane] |  |
